Data set [1] relates to C2C12 cells.
For data set [2], the system named is DDA3. The following applies: cited from earlier work.
Data set [3] relates to 4833427G06Rik mRNA. The data set is described as follows: RT-PCR assay of 4833427G06Rik (Dog1) mRNA in C2C12 cells. The data set is classed as cell-based, mouse. The following applies: C2C12, 24 hour drug, 18 hour differentiation; relative to vehicle.
Data set [4] relates to Dda3 mRNA. The experiment in a line: RT-PCR assay of Dda3 mRNA in C2C12 cells. The following applies: C2C12, 24 hour drug, 18 hour differentiation; relative to vehicle. Format: cell-based, mouse.
Data set [5] has as its system C2C12 cells. The data set is described as follows: Genomic assay: gene expression analysis (Affymetrix Murine Genome MOE430) in C2C12 cells induced to differentiate.
Experimental: Three independent replicates were generated for each drug and time point. Sample processing was carried out according to protocols described in the Affymetrix Expression Analysis Technical Manual. Briefly, total RNA was isolated from cells by the acid guanidinium thiocyanate-phenol-chloroform extraction method (Trizol®, Invitrogen, Carlsbad, Calif.). Twice purified poly(A+) RNA was isolated and reverse transcribed using a T7-promoter coupled oligo(dT) primer, followed by in vitro transcription. The labeled samples were applied to the Affymetrix Murine Genome MOE430 set and were hybridized overnight at 45° C./60 rpm, washed using a FS450 Fluidics station, and scanned on a GS3000 scanner. The resulting image files were analyzed using Affymetrix software (Microarray Analysis Suite version 5.0).
To measure the effect of drug treatment on cellular gene expression, replicate data obtained from each drug and time point were compared with replicates for vehicle-matched controls using the Student t-test. The gene expression levels were Log transformed before applying the Student t-test. The fold change of the average expression level between the control and drug-treated cells was also calculated. […] A gene was considered expressed if the Affymetrix software determined that the gene was “present” in two out of the three replicates. This ensured that true expression changes were identified, and could be distinguished from background variability. Second, the calculated expression change for each of five tested drugs was at least 2 fold, and the calculated p-value for the expression change using the Student t-test was less than 0.01.
The mark [6] stands for this setting: C2C12, 24 h drug (μg/ml: BLEO 0.5, CIS 0.6, ETOP 0.5, MMS 0.008, MNNG 4, VINC 0.6), then 6, 18 or 24 h differentiation, vs DMSO.

Consider 13 compounds from patent publication US7745152B2, “Method for determining genotoxicity” (priority 2004, dated 2010).

Structures can show the parent of a compound that is named as a salt. Where two headings read alike, the source gives them in different places. *1 amine or outer side, *2 acyl side, *3 side chain or, on linkers, in order; H or OH if unused. Where a SMILES comes first, the peptide text is derived from it. Bridges are numbered along the chain shown (N, C = ends). Roman numbers before positions name the chains, in order. [ ]: non-standard residue; d: D form. Actinocin(9to1) = Cc1c2oc3c(C)ccc(C(=O)[*:1])c3nc-2c(C(=O)[*:2])c(N)c1=O; NMeV = CN[C@H](C(=O)O)C(C)C; Sar = CNCC(=O)O

In data set [1] (mouse), `O=[N+]([O-])c1ccc2c(c1)Cc1ccccc1-2` [2-nitrofluorene] came in with a Lowest effective dose of 5.2 µg/mL.
The compound `O=c1[nH]cc(F)c(=O)[nH]1` [5-fluorouracil] gave a Lowest effective dose in data set [1] (mouse, 24 h) of 0.0008 µg/mL.
Turning to `Cc1c2oc3c(C)ccc(C(=O)N[C@@H]4C(=O)N[C@H](C(C)C)C(=O)N5CCC[C@H]5C(=O)N(C)CC(=O)N(C)[C@@H](C(C)C)C(=O)O[C@@H]4C)c3nc-2c(C(=O)N[C@@H]2C(=O)N[C@H](C(C)C)C(=O)N3CCC[C@H]3C(=O)N(C)CC(=O)N(C)[C@@H](C(C)C)C(=O)O[C@@H]2C)c(N)c1=O` [Actinomycin D] (I: T[dV]P[Sar][NMeV] / II: T[dV]P[Sar][NMeV]; ester I:1-I:C, II:1-II:C; linker I:N-II:N via Actinocin(9to1)), the Lowest effective dose in data set [1] is 0.00075 µg/mL.
As to `N.N.[Cl][Pt][Cl]` [Cisplatin], in data set [1], the Lowest effective dose was 0.15 µg/mL and the “extreme block of differentiation: cell death in differentiation media” value was “the cells begin to die after 3 days in differentiation media”.
Turning to `CC/C(=C(/CC)c1ccc(O)cc1)c1ccc(O)cc1` [Diethylstilbestrol (DES), Diethylstilbestrol], in data set [1] (mouse, 24 h), the Lowest effective dose is 1.8 µg/mL.
Still for that read-out and setting: the value for `COc1cccc2c1C(=O)c1c(O)c3c(c(O)c1C2=O)C[C@@](O)(C(=O)CO)C[C@@H]3O[C@H]1C[C@H](N)[C@H](O)[C@H](C)O1` [Doxorubicin HCl] was 0.005 µg/mL; that for `CCOS(C)(=O)=O` [Methanesulfonate ethyl ester (EMS), Methanesulfonate ethyl ester] was 100 µg/mL.
Regarding `CO[C@@]12[C@H](COC(N)=O)C3=C(C(=O)C(C)=C(N)C3=O)N1C[C@@H]1N[C@@H]12` [Mitomycin C], the “DDA3 expression in NIH3T3 cells exposed to DNA damaging agents” value in data set [2] is given as “upregulated”.
Take `CC(=O)O[C@H]1C(=O)[C@@]2(C)[C@H]([C@H](OC(=O)c3ccccc3)[C@]3(O)C[C@H](OC(=O)[C@H](O)[C@@H](NC(=O)c4ccccc4)c4ccccc4)C(C)=C1C3(C)C)[C@]1(OC(C)=O)CO[C@@H]1C[C@@H]2O` [Paclitaxel]: the Lowest effective dose in data set [1] (mouse, 24 h) is 0.002 µg/mL.
In the case of `CC[C@]1(O)C[C@@H]2CN(CCc3c([nH]c4ccccc34)[C@@](C(=O)OC)(c3cc4c(cc3OC)N(C)[C@H]3[C@@](O)(C(=O)OC)[C@H](OC(C)=O)[C@]5(CC)C=CCN6CC[C@]43[C@@H]65)C2)C1` [Vinblastine sulfate], the “relative expression of 4833427G06Rik mRNA” value in data set [3] is “much larger increase in expression of these indicator genes than did vincristine”. The Lowest effective dose in data set [1] (mouse, 24 h) stood at 0.0006 µg/mL. In addition, in data set [4], the “relative expression of Dda3 mRNA” value is given as “much larger increase in expression of these indicator genes than did vincristine”.
Take `CC[C@]1(O)C[C@H]2CN(CCc3c([nH]c4ccccc34)[C@@](C(=O)OC)(c3cc4c(cc3OC)N(C=O)[C@H]3[C@@](O)(C(=O)OC)[C@H](OC(C)=O)[C@]5(CC)C=CCN6CC[C@]43[C@@H]65)C2)C1` [Vincristine sulfate]: in data set [5] (setting [6]), the “Fold change in expression: 0610013D04 Rik, RIKEN cDNA” value is 2.00 fold; the “Fold change in expression: 1600013K19 Rik, RIKEN cDNA” value was determined as 0.98 fold; the “Fold change in expression: 2610005B21 Rik, RIKEN cDNA” value stood at 0.81 fold; the “Fold change in expression: 2610019I03 RIK, RIKEN cDNA” value is on record as 0.76 fold. Further, in data set [5] (setting [6]), the “Fold change in expression: 2610509G12 Rik, RIKEN cDNA” value was 0.55 fold; the “Fold change in expression: 2810417H13 Rik, RIKEN cDNA” value was 0.96 fold; the “Fold change in expression: 4833427G06 Rik, RIKEN cDNA” value worked out at 0.98 fold; the “Fold change in expression: 6530401L14 Rik, RIKEN cDNA” value is on record as 0.53 fold. In addition, in data set [5] (setting [6]), the “Fold change in expression: 9030617O03 Rik, RIKEN cDNA” value is 1.20 fold; the “Fold change in expression: Anxa8, Annexin A8” value came out at 1.80 fold; the “Fold change in expression: Asflb, ASF1 anti-silencing function 1 homolog B (Saccharomyces)” value stood at 0.71 fold; the “Fold change in expression: Birc5, Baculoviral IAP repeat-containing 5” value is reported as 0.87 fold. Moreover, in data set [5] (setting [6]), the “Fold change in expression: Brca1, Breast cancer 1” value came to 0.51 fold; the “Fold change in expression: Calmbp1, Calmodulin binding protein 1” value was 0.40 fold; the “Fold change in expression: Capn6, Calpain 6” value was 0.83 fold; the “Fold change in expression: Ccna2, Cyclin A2” value was determined as 0.82 fold. In data set [5] (setting [6]), the “Fold change in expression: Ccng1, Cyclin G1” value was 1.80 fold; the “Fold change in expression: Cilp, Cartilage intermediate layer pro” value came to 0.77 fold; the “Fold change in expression: Cks2, CDC28 protein kinase regulatory subunit 2” value amounted to 0.78 fold; the “Fold change in expression: D4Ertd421e, DNA segment, Chr 4, ERATO Doi 421, expressed” value is recorded as 0.64 fold. In data set [5] (setting [6]), the “Fold change in expression: Dda3-pending, Differential display and activated by p53” value turned out to be 2.00 fold; the “Fold change in expression: E2f7, E2F transcription factor 7” value was determined as 0.63 fold; the “Fold change in expression: E030024M05 Rik, RIKEN cDNA” value was 1.20 fold; the “Fold change in expression: E130315B21 Rik, RIKEN cDNA” value was 0.70 fold. Also, in data set [5] (setting [6]), the “Fold change in expression: Ephx1, Epoxide hydrolase 1 (microsomal xenobiotic hydrolase)” value is recorded as 1.10 fold; the “Fold change in expression: Fbxo5, f-box only protein 31” value was 0.54 fold; the “Fold change in expression: Foxm1, Forkhead box M1” value was found to be 0.68 fold; the “Fold change in expression: Gmnn, Geminin” value was 0.65 fold. Also, in data set [5] (setting [6]), the “Fold change in expression: Gnpi, Glucosamine-6-phosphate deaminase” value is 1.60 fold; the “Fold change in expression: Hgf, Hepatocyte growth factor (scatter factor)” value worked out at 2.00 fold; the “Fold change in expression: Hmgb2, High mobility group box 2” value was determined as 0.57 fold; the “Fold change in expression: Hmgb3, High mobility group box 3” value was determined as 0.67 fold. In data set [5] (setting [6]), the “Fold change in expression: Hmmr, Hyaluronan mediated motility receptor (RHAMM)” value worked out at 0.52 fold; the “Fold change in expression: Kifl1, Kinesin 11” value stood at 0.46 fold; the “Fold change in expression: Lek1, Leucine, glutamic acid, lysine family 1 protein” value came to 0.45 fold; the “Fold change in expression: Ly6e, Lymphocyte antigen 6 complex, locus E” value turned out to be 1.30 fold. For the same compound, in data set [5] (setting [6]), the “Fold change in expression: M-phosph1, M-phase phosphoprotein” value was 0.37 fold; the “Fold change in expression: MGC:32192, Mus musculus cDNA clone MGC: 32192 IMAGE: 5006129” value amounted to 0.71 fold; the “Fold change in expression: Mad2l1, MAD2 (mitotic arrest deficient, homolog)-like 1 (yeast)” value was determined as 0.64 fold; the “Fold change in expression: Mad3, Max dimerization protein 3” value is 0.89 fold. Also, in data set [5] (setting [6]), the “Fold change in expression: Mcm3, Minichromosome maintenance deficient 3 (Saccharomyces)” value stood at 0.69 fold; the “Fold change in expression: Mcmd4, Minichromosome maintenance deficient 4 homolog” value was 0.64 fold; the “Fold change in expression: Mki67, Antigen identified by MAb Ki67” value is recorded as 0.43 fold; the “Fold change in expression: Mmhead, Mus musculus 15 day embryo head cDNA clone” value is on record as 0.95 fold. In data set [5] (setting [6]), the “Fold change in expression: Nos3, Nitric oxide synthase 3, endothelial cell” value is reported as 1.30 fold; the “Fold change in expression: Np95, Nuclear protein 95” value is on record as 0.71 fold; the “Fold change in expression: Nusap1, Nucleolar and spindle associated protein 1” value was determined as 0.56 fold; the “Fold change in expression: Osbp16, Oxysterol binding protein-like 6” value is 1.10 fold. Also, in data set [5] (setting [6]), the “Fold change in expression: Pbk, PDZ binding kinase” value came out at 0.62 fold; the “Fold change in expression: Pcna, Proliferating cell nuclear antigen” value is on record as 0.70 fold; the “Fold change in expression: Phex, Phosphate regulating neutral endopeptidase (X chromosome)” value is listed as 0.67 fold; the “Fold change in expression: Plf, Proliferin” value is listed as 1.10 fold. Besides, in data set [5] (setting [6]), the “Fold change in expression: Pola1, DNA polymerase alpha 1, 180 kDa” value stood at 0.51 fold; the “Fold change in expression: Prc1, Protein regulator of cytokinesis 1” value stood at 0.63 fold; the “Fold change in expression: Prelp, Proline arginine-rich end leucine-rich repeat” value is on record as 0.58 fold; the “Fold change in expression: Prim1, DNA primase, p49 subunit” value turned out to be 0.54 fold. Besides, in data set [5] (setting [6]), the “Fold change in expression: Rad51ap1, RAD51-associated protein 1” value is listed as 0.59 fold; the “Fold change in expression: Rbl1, Retinoblastoma-like 1 (p107)” value is 0.67 fold; the “Fold change in expression: Serpine1, Ser (or Cys) proteinase inhibitor, clade E, member 1” value is 1.00 fold; the “Fold change in expression: Sesn2, Sestrin 2” value is given as 2.38 fold. In data set [5] (setting [6]), the “Fold change in expression: Shcbp1, Shc SH2-domain binding protein 1” value worked out at 0.52 fold; the “Fold change in expression: Slc35a5, Solute carrier family 35, member A5” value stood at 1.30 fold; the “Fold change in expression: Smc2l1, SMC2 structural maintenance of chromosomes 2-like 1” value is 0.75 fold; the “Fold change in expression: Stk18, Serine/threonine kinase 18” value was found to be 0.63 fold. In data set [5] (setting [6]), the “Fold change in expression: Tacc3, Transforming, acidic coiled-coil containing protein 3” value is reported as 0.73 fold; the “Fold change in expression: Tagln, Transgelin (smooth muscle 22 protein)” value stood at 0.84 fold; the “Fold change in expression: Tk1, Thymidine kinase 1” value is reported as 0.62 fold; the “Fold change in expression: Top2a, Topoisomerase (DNA) II alpha” value is on record as 0.52 fold. Also, in data set [5] (setting [6]), the “Fold change in expression: Trp53inp1, Transformation related protein, 53 inducible nuclear protein 1” value is reported as 1.60 fold; the “Fold change in expression: Usp30, Ubiquitin specific protease 30” value worked out at 2.00 fold; the “Fold change in expression: Wig1, Wild-type p53-induced gene 1” value turned out to be 1.20 fold. For the same compound, in data set [5] (C2C12, vincristine sulfate 0.6 μg/ml 24 h, relative to the five other drugs tested), the “pattern of gene expression changes” value is “induced a distinct pattern of gene expression changes relative to the five other drugs tested”. For the same compound, the “Fold change in expression: Slc19a2, Solute carrier family 19 (thiamine transporter), member 2” value in data set [5] (first Slc19a2 entry (r16), C2C12, 24 h drug (μg/ml: BLEO 0.5, CIS 0.6, ETOP 0.5, MMS 0.008, MNNG 4, VINC 0.6), then 6, 18 or 24 h differentiation, vs DMSO) was 1.40 fold. Further, the “Fold change in expression: Slc19a2, Solute carrier family 19 (thiamine transporter), member 2” value in data set [5] (second Slc19a2 entry (r72), C2C12, 24 h drug (μg/ml: BLEO 0.5, CIS 0.6, ETOP 0.5, MMS 0.008, MNNG 4, VINC 0.6), then 6, 18 or 24 h differentiation, vs DMSO) is listed as 1.10 fold. Further, the Lowest effective dose in data set [1] (mouse, 24 h) is 0.002 µg/mL.
With `COc1cccc2c1C(=O)c1c(O)c3c(c(O)c1C2=O)C[C@@](O)(C(=O)CO)C[C@@H]3O[C@H]1C[C@H](N)[C@H](O)[C@H](C)O1` [adriamycin], in data set [2], the “DDA3 expression in NIH3T3 cells exposed to DNA damaging agents” value is reported as “upregulated”.
In the case of Bleomycin sulfate, the Lowest effective dose in data set [1] stood at 1 µg/mL.
